Assay results as given in ChEMBL document CHEMBL3044728, “Synthesis and biological activity of new (E)-alpha-(Methoxyimino)benzeneacetate derivatives containing a substituted pyrazole ring” (2010).

Legend:
Format in all cases: functional
Blumeria graminis [1] = experiment: Antifungal activity against Blumeria graminis assessed as inhibition at 1.56 mg/L relative to control
Pyricularia oryzae [2] = experiment: Antifungal activity against Magnaporthe oryzae assessed as inhibition at 0.92 mg/L relative to control
Blumeria graminis [3] = experiment: Antifungal activity against Blumeria graminis assessed as inhibition at 6.25 mg/L relative to control
Phytophthora infestans [4] = experiment: Antifungal activity against Phytophthora infestans assessed as inhibition at 0.92 mg/L relative to control
[5] = system: Pseudoperonospora cubensis; experiment: Antifungal activity against Pseudoperonospora cubensis assessed as inhibition at 25 mg/L relative to control
Phytophthora infestans [6] = experiment: Antifungal activity against Phytophthora infestans assessed as inhibition at 25 mg/L relative to control
Pyricularia oryzae [7] = experiment: Antifungal activity against Magnaporthe oryzae assessed as inhibition at 25 mg/L relative to control
[8] = system: Pseudoperonospora cubensis; experiment: Antifungal activity against Pseudoperonospora cubensis assessed as inhibition at 400 mg/L relative to control
[9] = system: Pseudoperonospora cubensis; experiment: Antifungal activity against Pseudoperonospora cubensis assessed as inhibition at 6.25 mg/L relative to control
Blumeria graminis [10] = experiment: Antifungal activity against Blumeria graminis assessed as inhibition at 400 mg/L relative to control

| SMILES | inhibition at 1.56 µg/mL (Blumeria graminis [1]) | inhibition at 0.92 µg/mL (Pyricularia oryzae [2]) | inhibition at 6.25 µg/mL (Blumeria graminis [3]) | inhibition at 0.92 µg/mL (Phytophthora infestans [4]) | inhibition at 25 µg/mL [5] | inhibition at 25 µg/mL (Phytophthora infestans [6]) | inhibition at 25 µg/mL (Pyricularia oryzae [7]) | inhibition at 400 µg/mL [8] | inhibition at 6.25 µg/mL [9] | inhibition at 400 µg/mL (Blumeria graminis [10]) |
| --- | --- | --- | --- | --- | --- | --- | --- | --- | --- | --- |
| CNC(=O)/C(=N/OC)c1ccccc1COc1c(C)c(-c2ccc(C)c(C)c2)nn1C | 55% | 80% | 100% | 100% | 100% | 100% | 100% | 100% | 40% | 100% |
| CO/N=C(/C(=O)OC)c1ccccc1COc1c(C)c(-c2ccc(C)c(C)c2)nn1C | 60% | 80% | 100% | 100% | 75% | 100% | 100% | 100% | 70% | 100% |
| CNC(=O)/C(=N/OC)c1ccccc1COc1cc(-c2ccc(C(C)(C)C)cc2)nn1C |  | 50% |  | 50% | 0% | 100% | 100% | 80% |  | 0% |
| CNC(=O)/C(=N/OC)c1ccccc1COc1cc(-c2ccccc2)nn1C |  |  |  |  | 100% |  | 0% | 100% | 70% | 50% |
| CO/N=C(/C(=O)OC)c1ccccc1COc1cc(-c2ccccc2Cl)nn1C | 45% | 0% | 75% | 0% | 30% | 100% | 100% | 80% |  | 100% |
| CO/N=C(/C(=O)OC)c1ccccc1COc1c(C)c(-c2ccc(OCC(F)(F)F)cc2)nn1C | 15% | 80% | 70% |  | 0% | 50% | 100% | 80% |  | 100% |
| CO/N=C(/C(=O)OC)c1ccccc1COc1c(C)c(-c2ccc(C)cc2)nn1C | 100% |  | 100% | 100% | 60% | 100% | 50% | 95% |  | 100% |
| CO/N=C(/C(=O)OC)c1ccccc1COc1ccccc1C [KRESOXIM-METHYL] | 100% |  | 100% |  | 35% | 100% | 100% |  | 0% | 100% |
| CO/N=C(/C(=O)OC)c1ccccc1COc1c(C)c(-c2ccc(C(C)(C)C)cc2)nn1C |  |  |  |  |  | 0% | 50% | 40% |  | 70% |
| CNC(=O)/C(=N/OC)c1ccccc1COc1cc(-c2ccccc2Cl)nn1C | 55% |  | 90% | 0% | 40% | 100% | 0% | 90% |  | 100% |
| CNC(=O)/C(=N/OC)c1ccccc1COc1c(C)c(-c2ccc(C(C)(C)C)cc2)nn1C | 0% | 100% | 0% | 40% | 20% | 100% | 100% | 95% |  | 100% |
| CO/N=C(/C(=O)OC)c1ccccc1COc1c(C)c(-c2ccc(Cl)cc2)nn1C | 98% |  | 100% | 100% | 100% | 100% | 50% | 100% | 100% | 100% |
| CNC(=O)/C(=N/OC)c1ccccc1COc1c(C)c(-c2ccc(C)cc2)nn1C | 40% |  | 95% | 100% |  | 100% | 0% | 65% |  | 100% |
| CO/N=C(/C(=O)OC)c1ccccc1COc1cc(-c2ccc(C(C)(C)C)cc2)nn1C |  | 80% |  | 60% | 0% | 100% | 100% | 95% |  | 0% |
| CO/C=C(/C(=O)OC)c1ccccc1Oc1cc(Oc2ccccc2C#N)ncn1 [AZOXYSTROBIN] | 60% |  | 100% |  | 100% |  | 100% | 100% | 95% | 100% |
| CCOc1ccc(-c2nn(C)c(OCc3ccccc3/C(=N\OC)C(=O)NC)c2C)cc1 | 70% | 100% | 100% | 50% | 20% | 100% | 100% | 98% |  | 100% |
| CO/N=C(/C(=O)OC)c1ccccc1COc1cc(-c2ccccc2OC)nn1C | 40% | 50% | 90% |  |  | 0% | 100% | 50% |  | 100% |
| CCc1ccc(-c2nn(C)c(OCc3ccccc3/C(=N\OC)C(=O)OC)c2C)cc1 | 100% |  | 100% | 80% | 70% | 100% | 50% | 98% | 50% | 100% |
| CNC(=O)/C(=N/OC)c1ccccc1COc1cc(-c2ccc(OC)cc2)nn1C |  | 80% | 0% | 0% | 30% | 100% | 100% | 98% |  | 100% |
| CCc1ccc(-c2nn(C)c(OCc3ccccc3/C(=N\OC)C(=O)NC)c2C)cc1 | 90% | 0% | 100% | 80% |  | 100% | 100% | 50% |  | 100% |
| CNC(=O)/C(=N/OC)c1ccccc1COc1c(C)c(-c2ccc(Cl)cc2)nn1C | 85% |  | 100% |  | 40% | 100% | 0% | 80% |  | 100% |
| CO/N=C(/C(=O)OC)c1ccccc1COc1cc(-c2ccc(OC)cc2)nn1C |  |  | 10% | 0% | 50% | 100% | 0% | 98% |  | 100% |
